Measurements published in patent publication EP0333676A2, “Use of 1-(2-ethoxy-2-(3'-pyridyl)ethyl)-4-(2'methoxy-phenyl)piperazine, for the preparation of pharmaceutical compositions useful for the treatment of lower urinary tract disfunctions and benign prostatic hypertrophy” (MALESCI ISTITUTO FARMACOBIOLOGICO S.p.A., priority 1988, dated 1989).

Tests used:
alpha₁-adrenoceptor = experiment: Antagonism of the phenylephrine concentration-response curve in isolated rat proximal urethra; conditions: versus phenylephrine, compound at 1 nM, rightward parallel displacement of the curve
Protocol: (§1) In the "in vitro" studies, male albino rats, Wistar Nossan strain, weighing 300-350 g were used. Animals were sacrificed by cervical dislocation and the proximal urethra was quickly excised, cleaned of connective tissues and then suspended in an organ bath and tied to an isometric force transducer, under resting tension of 0.5 g. Experiments were performed at 37°C and the bathing medium (gassed with 95% O₂ and 5% CO₂) had the following composition (mM): NaCl 119, KCl 4.7, MgSO₄ 1.5, […], CaCl₂ 2.5, NaHCO₃ 25 and glucose 11. Experiments were carried out after 60 min equilibration period.
(§2) In a first group of experiments a cumulative concentration response curve to alpha₁-adrenoceptor selective agonist, phenylephrine, was obtained in control conditions or in presence of the compound of invention (1 nM). The compound of invention (1 nM) produced a rightward parallel displacement of concentration response curve to phenylephrine with a pA₂ of 9.18±0.12. In another set of experiments urethral contractions were obtained by means of field stimulation (20 Hz, 0.5 msec, maximal voltage; trains of 5 sec every 4 min). These contractions (obtained in a medium additionated with atropine 1 uM) were TTX-sensitive and probably due to stimulation of adrenergic fibers. […]

isolated urethra of rat = experiment: Inhibition of field stimulation-induced contractions of isolated rat proximal urethra; conditions: inhibition of urethral contractions by field stimulation (20 Hz, 0.5 msec, maximal voltage), atropine 1 uM in medium, range 1 pM-1 nM, printed interval (0.09-0.18), read-out: EC₅₀
Protocol: as §1, §2

[1] = system: rat chronically treated with testosterone; experiment: Transvesical cystometrogram in rats chronically treated with testosterone (urethral outflow obstruction); format: in vivo; conditions: 0.1-3 ug/Kg i.v.; rats treated for 2 weeks with testosterone propionate 3 mg/Kg s.c.; urethane anaesthesia
Protocol: (§3) In the "vivo" studies two experimental models characterized by urethral outflow obstruction were used: a) rat chronically treated with testosterone and b) rat acutely treated with hexamethonium.
(§4) Male albino rats, Wistar strain, weighting 300-350 g, were treated for 2 weeks with testosterone propionate at the dose of 3 mg/Kg s.c.. Afterwards animals were anaesthetized with urethane 40% s.c. (0.3 ml/hg) and then transvescical cystometrogram were perfused according to the method of Maggi et al. (J. Pharmacol. Meth. 15, 157; 1986). Testosterone-treated animals were characterized by the appearance of frequent, scarcely effective, micturition complexes and by a very high residual volume (about double than controls). […] It is important to underline that in urethane anaesthetized normotensive rats, i.v. administration of compound of invention exerts an hypotensive effect in the range 3-100 ug/kg.

[2] = system: urethane anaesthetized normotensive rats; experiment: Hypotensive effect in urethane-anaesthetized normotensive rats; format: in vivo, rat; conditions: i.v. administration
Protocol: as §4

[3] = system: rat acutely treated with hexamethonium; experiment: Transvesical cystometrogram in rats acutely treated with hexamethonium (urethral outflow obstruction); format: in vivo; conditions: pretreatment at doses lower than 3 ug/Kg i.v.
Protocol: as §3
Urethane-anaesthetized male albino rats, Wistar strain weighing 300-350 g, were used.
Administration of hexamethonium (40 mg/Kg i.v.) 5 minutes before start of transvescical cystometrogram produced in about 75% of animals an overflow incontinence coupled to high values of intravescical pressure.

- EC50 (isolated urethra of rat): 0.13 nM
- dose range exerting an hypotensive effect [2]: 3 to 100 µg/kg
Structure (SMILES): CCOC(CN1CCN(c2ccccc2OC)CC1)c1cccnc1 (racemic) [compound of invention, 1-(2-ethoxy-2-(3′-pyridyl)ethyl)-4-(2′-methoxy-phenyl)piperazine]
- pA₂ (alpha₁-adrenoceptor): 9.18±0.12
- voiding efficiency [1]: clear, objective and prompt beneficial action on the voiding efficiency
- intravescical pressure ([3]; hexamethonium 40 mg/Kg i.v.): lower intravescical pressure values
- overflow incontinence ([3]; hexamethonium 40 mg/Kg i.v. (about 75% of animals incontinent without pretreatment)): never produced overflow incontinence
